These results are taken from patent US20250145599A1, “CERTAIN CHEMICAL ENTITIES, COMPOSITIONS, AND METHODS” (Retune Pharma Inc., priority 2022, published 2025).

One assay has as its target IGF-1R (Homo sapiens, UniProt P08069). Nature of the assay: IGF-1R biochemical assay (ADP-Glo). The conditions noted are these: read-out: IGF1R IC50. How it is done: The inhibitory activity against IGF-1R was measured using ADP-Glo assay. The percent (%) inhibition at each concentration of compound is calculated based on and relative to the luminescence signal in the Max and Min control wells contained within each assay plate. The Max control wells contain enzyme and substrate as 0% inhibition, and the Min control wells only contain substrate without enzyme as 100% inhibition. The concentrations and % inhibition values for tested compounds are plotted and the concentration of compound required for 50% inhibition (IC50) is determined with a four-parameter logistic dose response equation.
Table 3 provides IC50 data of representative compounds against IGF-1R using ADP-Glo assay. The IC50 data are designated within the following ranges: A: ≤0.10 μM, B: >0.10 μM to ≤1 μM, C: >1 μM to ≤20 μM

In a further assay the test system is Ba/F3-TEL-IGF-1R cells. Nature of the assay: CellTiter-Glo luminescent cell viability assay. The class given is cell-based. To be noted: cellular IC50, Ba/F3-TEL-IGF-1R cells. How it is done:
The CellTiter-Glo luminescent cell viability assay was used to determine the inhibitory activity of the compounds against IGF-1R in Ba/F3-TEL-IGF-1R cells. […] The IC50 data are designated within the following ranges: A: ≤1 μM, B: >1 μM to ≤10 μM, C: >10 μM to ≤20 μM

Assay [1] concerns metastatic pancreatic cancer. To be noted: clinical trials, incl. metastatic pancreatic cancer; cited from earlier work.
The subject of the next assay is malignancies. The conditions noted are these: Phase I trials; cited from earlier work.
A further assay relates to thyroid eye disease. To be noted: cited from earlier work.

IGF-1R, sequence (P08069 31-1367): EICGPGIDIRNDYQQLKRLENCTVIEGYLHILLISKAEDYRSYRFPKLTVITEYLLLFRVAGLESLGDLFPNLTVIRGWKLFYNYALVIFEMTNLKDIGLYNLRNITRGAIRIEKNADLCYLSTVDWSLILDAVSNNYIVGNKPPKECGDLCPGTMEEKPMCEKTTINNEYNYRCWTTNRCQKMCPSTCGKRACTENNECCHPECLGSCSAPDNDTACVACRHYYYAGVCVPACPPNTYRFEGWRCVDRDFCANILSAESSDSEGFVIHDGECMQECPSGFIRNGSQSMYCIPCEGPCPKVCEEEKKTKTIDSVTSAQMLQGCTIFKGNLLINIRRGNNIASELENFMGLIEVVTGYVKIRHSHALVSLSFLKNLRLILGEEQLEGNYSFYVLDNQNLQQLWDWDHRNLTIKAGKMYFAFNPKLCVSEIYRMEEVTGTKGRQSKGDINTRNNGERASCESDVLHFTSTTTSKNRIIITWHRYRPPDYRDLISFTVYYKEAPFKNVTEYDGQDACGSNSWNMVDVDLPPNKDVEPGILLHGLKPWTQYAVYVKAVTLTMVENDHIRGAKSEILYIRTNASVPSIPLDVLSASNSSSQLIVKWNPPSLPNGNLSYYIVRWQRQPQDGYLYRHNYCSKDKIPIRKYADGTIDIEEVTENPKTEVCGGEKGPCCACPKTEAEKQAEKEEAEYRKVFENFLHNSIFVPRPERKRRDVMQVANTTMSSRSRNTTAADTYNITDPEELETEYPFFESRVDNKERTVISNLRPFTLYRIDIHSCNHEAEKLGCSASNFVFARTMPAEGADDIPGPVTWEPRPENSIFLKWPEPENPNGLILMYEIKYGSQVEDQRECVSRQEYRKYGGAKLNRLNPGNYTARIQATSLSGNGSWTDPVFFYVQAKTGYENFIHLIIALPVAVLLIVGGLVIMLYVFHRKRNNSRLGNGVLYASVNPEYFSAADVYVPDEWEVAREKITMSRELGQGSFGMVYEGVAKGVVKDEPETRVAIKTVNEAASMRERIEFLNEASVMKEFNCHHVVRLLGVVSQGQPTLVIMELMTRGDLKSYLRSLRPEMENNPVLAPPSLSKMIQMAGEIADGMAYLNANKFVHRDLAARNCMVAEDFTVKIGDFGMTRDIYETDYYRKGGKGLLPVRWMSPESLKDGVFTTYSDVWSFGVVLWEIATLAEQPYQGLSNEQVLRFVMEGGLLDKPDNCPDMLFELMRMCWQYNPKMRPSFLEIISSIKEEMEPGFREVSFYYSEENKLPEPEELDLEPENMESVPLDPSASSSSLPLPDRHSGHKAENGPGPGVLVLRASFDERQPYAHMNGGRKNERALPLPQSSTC

With `COc1cc(-c2ccccc2F)nc2c(F)c(-c3nn([C@H]4C[C@](C)(O)C4)c(N)c3C(N)=O)ccc12` [Example C050, 5-amino-3-(8-fluoro-2-(2-fluorophenyl)-4-methoxyquinolin-7-yl)-1-((1r,3r)-3-hydroxy-3-methylcyclobutyl)-1H-pyrazole-4-carboxamide], the IC50 on IGF-1R is at most 0.1 µM; in the assay on Ba/F3-TEL-IGF-1R cells it was at most 1 µM.

With `CCOc1cc(-c2ccccc2)nc2c(F)c(-c3nn([C@H]4C[C@@](C)(O)C4)c(N)c3C(N)=O)ccc12` [Example C033, 5-amino-3-(4-ethoxy-8-fluoro-2-phenylquinolin-7-yl)-1-((1s,3s)-3-hydroxy-3-methylcyclobutyl)-1H-pyrazole-4-carboxamide], the figures for the IC50 at IGF-1R and with Ba/F3-TEL-IGF-1R cells were at most 0.1 µM and at most 1 µM, respectively.

ganitumab: in assay [1], the survival rates result was “largely ineffective at improving survival rates”.

Regarding `C[C@]1(O)C[C@@H](n2nc(-c3ccc4ccc(-c5ccccc5F)nc4c3F)c(C(N)=O)c2N)C1` [Example C056, 5-amino-3-(8-fluoro-2-(2-fluorophenyl)quinolin-7-yl)-1-((1s,3s)-3-hydroxy-3-methylcyclobutyl)-1H-pyrazole-4-carboxamide], the IC50 is at most 0.1 µM on IGF-1R and at most 1 µM with Ba/F3-TEL-IGF-1R cells.

Regarding `COc1cc(-c2ccccc2)nc2c(F)c(-c3nn([C@H]4C[C@@](C)(O)C4)c(N)c3C(N)=O)ccc12` [Example C034, 5-amino-3-(8-fluoro-4-methoxy-2-phenylquinolin-7-yl)-1-((1s,3s)-3-hydroxy-3-methylcyclobutyl)-1H-pyrazole-4-carboxamide], the results for the IC50 at IGF-1R and in the assay with Ba/F3-TEL-IGF-1R cells were at most 0.1 µM and at most 1 µM, respectively.

Consider `COc1cc(-c2ccccc2F)nc2c(F)c(-c3nn([C@H]4C[C@@](C)(O)C4)c(N)c3C(N)=O)ccc12` [Example C035, 5-amino-3-(8-fluoro-2-(2-fluorophenyl)-4-methoxyquinolin-7-yl)-1-((1s,3s)-3-hydroxy-3-methylcyclobutyl)-1H-pyrazole-4-carboxamide], for which the IC50 at IGF-1R is at most 0.1 µM; in the assay on Ba/F3-TEL-IGF-1R cells, at most 1 µM.

For `COc1c(F)c(-c2ccccc2)nc2c(F)c(-c3nn([C@H]4C[C@@](C)(O)C4)c(N)c3C(N)=O)ccc12` [Example C062, 5-amino-3-(3,8-difluoro-4-methoxy-2-phenylquinolin-7-yl)-1-((1s,3s)-3-hydroxy-3-methylcyclobutyl)-1H-pyrazole-4-carboxamide], the IC50 on IGF-1R was at most 0.1 µM; in the assay on Ba/F3-TEL-IGF-1R cells, at most 1 µM.

Turning to `CCOc1cc(-c2ccccc2)nc2cc(-c3nn([C@H]4C[C@@](C)(O)C4)c(N)c3C(N)=O)ccc12` [Example C036, 5-amino-3-(4-ethoxy-2-phenylquinolin-7-yl)-1-((1s,3s)-3-hydroxy-3-methylcyclobutyl)-1H-pyrazole-4-carboxamide], the IC50 is at most 0.1 µM on IGF-1R and at most 1 µM with Ba/F3-TEL-IGF-1R cells.

Take teprotumumab: in the assay with malignancies, the “effectiveness in treating malignancies” value is on record as “little effectiveness”. Further, the “inflammation in thyroid eye disease” value with thyroid eye disease is recorded as “decrease inflammation”.

`COc1cc(-c2cccc(F)c2)nc2cc(-c3nn([C@H]4C[C@@](C)(O)C4)c(N)c3C(N)=O)ccc12` [Example C048, 5-amino-3-(2-(3-fluorophenyl)-4-methoxyquinolin-7-yl)-1-((1s,3s)-3-hydroxy-3-methylcyclobutyl)-1H-pyrazole-4-carboxamide]: the 50% inhibitory concentration (IC50) on IGF-1R is at most 0.1 µM; with Ba/F3-TEL-IGF-1R cells, at most 1 µM.

With `COc1c(F)c(-c2ccccc2F)nc2c(F)c(-c3nn([C@H]4C[C@@](C)(O)C4)c(N)c3C(N)=O)ccc12` [Example C061, 5-amino-3-(3,8-difluoro-2-(2-fluorophenyl)-4-methoxyquinolin-7-yl)-1-((1s,3s)-3-hydroxy-3-methylcyclobutyl)-1H-pyrazole-4-carboxamide], the IC50 on IGF-1R is at most 0.1 µM; in the assay on Ba/F3-TEL-IGF-1R cells, at most 1 µM.

Regarding `COc1cc(-c2ccccc2)nc2c(F)c(-c3nn([C@H]4C[C@](C)(O)C4)c(N)c3C(N)=O)ccc12` [Example C045, 5-amino-3-(8-fluoro-4-methoxy-2-phenylquinolin-7-yl)-1-((lr,3r)-3-hydroxy-3-methylcyclobutyl)-1H-pyrazole-4-carboxamide], the IC50 at IGF-1R is at most 0.1 µM; in the assay with Ba/F3-TEL-IGF-1R cells, at most 1 µM.

Regarding `NC(=O)c1c(-c2ccc3ccc(-c4ccccc4)nc3c2)nn([C@H]2C[C@H](CN3CCOCC3)C2)c1N` [Example C013, 5-amino-1-((1r,3r)-3-(morpholinomethyl)cyclobutyl)-3-(2-phenylquinolin-7-yl)-1H-pyrazole-4-carboxamide], the IC50 is at most 0.1 µM on IGF-1R and at most 1 µM with Ba/F3-TEL-IGF-1R cells.

As to `COc1cc(-c2ccccc2)nc2cc(-c3nn([C@H]4C[C@@](C)(O)C4)c(N)c3C(N)=O)c(F)cc12` [Example C051, 5-amino-3-(6-fluoro-4-methoxy-2-phenylquinolin-7-yl)-1-((1s,3s)-3-hydroxy-3-methylcyclobutyl)-1H-pyrazole-4-carboxamide], the IC50 at IGF-1R is at most 0.1 µM; in the assay on Ba/F3-TEL-IGF-1R cells, at most 1 µM.

For the compound `COc1cc(-c2ccccc2F)nc2cc(-c3nn([C@H]4C[C@@](C)(O)C4)c(N)c3C(N)=O)ccc12` [Example C046, 5-amino-3-(2-(2-fluorophenyl)-4-methoxyquinolin-7-yl)-1-((1s,3s)-3-hydroxy-3-methylcyclobutyl)-1H-pyrazole-4-carboxamide], the IC50 at IGF-1R is at most 0.1 µM; in the assay on Ba/F3-TEL-IGF-1R cells it was at most 1 µM.

In the case of `CC(C)n1nc(-c2ccc3ccc(-c4ccccc4)nc3c2)c(C(N)=O)c1N` [Example C024, 5-amino-1-isopropyl-3-(2-phenylquinolin-7-yl)-1H-pyrazole-4-carboxamide], the IC50 on IGF-1R lay within 0.1 to 1 µM.

Take `COc1c(F)c(-c2ccccc2F)nc2cc(-c3nn([C@H]4C[C@@](C)(O)C4)c(N)c3C(N)=O)ccc12` [Example C063, 5-amino-3-(3-fluoro-2-(2-fluorophenyl)-4-methoxyquinolin-7-yl)-1-((1s,3s)-3-hydroxy-3-methylcyclobutyl)-1H-pyrazole-4-carboxamide]: the IC50 is at most 0.1 µM on IGF-1R and at most 1 µM in the assay on Ba/F3-TEL-IGF-1R cells.

Regarding `NC(=O)c1c(-c2ccc3ccc(-c4ccccc4)nc3c2)nn([C@H]2C[C@@H](CN3CCOCC3)C2)c1N` [Example C012, 5-amino-1-((1s,3s)-3-(morpholinomethyl)cyclobutyl)-3-(2-phenylquinolin-7-yl)-1H-pyrazole-4-carboxamide], the IC50 is at most 0.1 µM at IGF-1R and at most 1 µM with Ba/F3-TEL-IGF-1R cells.

Regarding `NC(=O)c1c(-c2ccc3ccc(-c4ccccc4)nc3c2)nn(C2CC(N3CCNCC3)C2)c1N` (stereo not drawn) [Example C025, 5-amino-3-(2-phenylquinolin-7-yl)-1-(3-(piperazin-1-yl)cyclobutyl)-1H-pyrazole-4-carboxamide], the concentration for half-maximal inhibition (IC50) at IGF-1R was at most 0.1 µM.

Regarding `CC(=O)N1CCC(n2nc(-c3ccc4ccc(-c5ccccc5)nc4c3)c(C(N)=O)c2N)CC1` [Example C010, 1-(1-acetylpiperidin-4-yl)-5-amino-3-(2-phenylquinolin-7-yl)-1H-pyrazole-4-carboxamide], the IC50 on IGF-1R was in the range of 1 to 20 µM.

As for `COc1cc(-c2ccccc2)nc2cc(-c3nn([C@H]4C[C@@](C)(O)C4)c(N)c3C(N)=O)ccc12` [Example C032, 5-amino-1-((1s,3s)-3-hydroxy-3-methylcyclobutyl)-3-(4-methoxy-2-phenylquinolin-7-yl)-1H-pyrazole-4-carboxamide], the figures for the IC50 on IGF-1R and with Ba/F3-TEL-IGF-1R cells were at most 0.1 µM and at most 1 µM, respectively.

Take `NC(=O)c1c(-c2ccc3ccc(-c4ccccc4)nc3c2)nn(C2CC(F)(F)C2)c1N` [Example C030, 5-amino-1-(3,3-difluorocyclobutyl)-3-(2-phenylquinolin-7-yl)-1H-pyrazole-4-carboxamide]: the IC50 on IGF-1R lay in the range of 0.1 to 1 µM.

`NC(=O)c1c(-c2ccc3ccc(-c4ccccc4)nc3c2)nn(C2CC(N3CCC3)C2)c1N` (stereo not drawn) [Example C027, 5-amino-1-(3-(azetidin-1-yl)cyclobutyl)-3-(2-phenylquinolin-7-yl)-1H-pyrazole-4-carboxamide]: the IC50 on IGF-1R lay in the range of 0.1 to 1 µM.

On to `NC(=O)c1c(-c2ccc3ccc(-c4ccccc4)nc3c2)nn([C@H]2C[C@@H](O)C2)c1N` [Example C009, 5-amino-1-((1s,3s)-3-hydroxycyclobutyl)-3-(2-phenylquinolin-7-yl)-1H-pyrazole-4-carboxamide], for which, on IGF-1R, the IC50 was in the range of 1 to 20 µM.

Take `COC(=O)N1CCC(n2nc(-c3ccc4ccc(-c5ccccc5)nc4c3)c(C(N)=O)c2N)CC1` [Example C004, methyl 4-(5-amino-4-carbamoyl-3-(2-phenylquinolin-7-yl)-1H-pyrazol-1-yl)piperidine-1-carboxylate]: on IGF-1R, the IC50 was in the range of 1 to 20 µM.

As to `C[C@]1(O)C[C@@H](n2nc(-c3ccc4ccc(-c5ccccc5)nc4c3)c(C(N)=O)c2N)C1` [Example C005, 5-amino-1-((1s,3s)-3-hydroxy-3-methylcyclobutyl)-3-(2-phenylquinolin-7-yl)-1H-pyrazole-4-carboxamide], the IC50 at IGF-1R is at most 0.1 µM; in the assay on Ba/F3-TEL-IGF-1R cells, at most 1 µM.

With `C[C@]1(O)C[C@@H](n2nc(-c3ccc4ccc(-c5ccccc5Br)nc4c3)c(C(N)=O)c2N)C1` [Example C038, 5-amino-3-(2-(2-bromophenyl)quinolin-7-yl)-1-((ls,3s)-3-hydroxy-3-methylcyclobutyl)-1H-pyrazole-4-carboxamide], the IC50 at IGF-1R was at most 0.1 µM.
